This note sets out measurements from patent publication EP0555537B1, “Endothelin antagonists” (BANYU PHARMACEUTICAL CO., LTD., priority 1991, dated 1993).

Numbered stars: 1 amine (or outer) side, 2 acyl side, 3 side chain; on linkers, the order of the positions; unused ones are H or OH. Square brackets hold non-standard residues; d marks the D form. Peptide text beside a SMILES is read from it. * marks the point of attachment. dNle = CCCC[C@@H](N)C(=O)O; Piperidide = C1CCN(*)CC1; Pyrrolidide = C1CCN(*)C1; dAbu = CC[C@@H](N)C(=O)O; Boc = CC(C)(C)OC(=O)*; CO = O=C([*:1])[*:2]; NHtBu = CC(C)(C)N*; Moc = COC(=O)*

This experiment concerns the target T1, ETB receptor (Sus scrofa, UniProt P35463).
T1 construct: ETB receptors of porcine cerebellum membrane suspension used in the present experiments; from tissue; host or cells: porcine cerebellum membrane fraction
T1 sequence (P35463 27-443): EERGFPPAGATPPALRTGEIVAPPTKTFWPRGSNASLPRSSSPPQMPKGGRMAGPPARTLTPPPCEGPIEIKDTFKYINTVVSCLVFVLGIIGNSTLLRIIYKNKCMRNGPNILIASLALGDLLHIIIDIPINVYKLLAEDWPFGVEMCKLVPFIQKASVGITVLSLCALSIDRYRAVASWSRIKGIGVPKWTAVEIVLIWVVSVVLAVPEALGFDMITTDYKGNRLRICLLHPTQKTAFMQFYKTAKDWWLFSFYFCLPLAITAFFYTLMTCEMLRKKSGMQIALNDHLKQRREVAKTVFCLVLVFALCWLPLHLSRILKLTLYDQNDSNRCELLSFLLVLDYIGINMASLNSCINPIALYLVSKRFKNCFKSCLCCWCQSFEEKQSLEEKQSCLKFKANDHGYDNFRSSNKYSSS
Nature of the experiment: Endothelin binding inhibition test (^125I-endothelin-1, porcine cerebellum membrane suspension). Conditions: 1.1 µM of the test compound, triplicate. The method, then: The cerebellum of porcine was homogenized in a buffer solution of 10 mM MOPS, pH 7.4, at 4°C by a polytron. To the homogenate, sucrose was added to a concentration of 20%, and the mixture was centrifuged at 1,000 x g for 15 minutes, and the supernatant was further centrifuged at 10,000 x g for 15 minutes. The supernatant thereof was further centrifuged at 90,000 x g for 40 minutes. The membrane precipitate thereby obtained was suspended in a buffer solution of 5 mM HEPES/Tris, pH 7.4, at a concentration of 3.3 mg/ml.
Then, 16 µl of this membrane suspension was added to 340 µl of 50 mM tris/HCl buffer, pH 7.4, containing […] calcium chloride, 10 µM magnesium chloride, 0.1 mM PMSF, 1 µM pepstatin A, 2 µM leupeptin, 1 mM 1,10-phenanthroline and 0.1% bovine serum albumin. To this suspension, 4 µl of (A) endothelin-1 (for nonspecific binding; 0.2 µM as the final concentration), (B) buffer solution A (for total control binding), or (C) a test compound (1.1 µM as the final concentration), was added. Further, to each suspension, 40 µl of ^125I-endothelin-1 (12000-18000 cpm) was added. These mixtures were incubated at 25°C for 4 hours, then subjected to filtration on a glass filter GF/C and then washed with 5 mM HEPES/Tris, pH 7.4, containing 0.3% bovine serum albumin. Then, the radioactivity trapped by the glass filter was measured, and the ^125I-endothelin-1 binding inhibition D (%) at 1.1 µM of the test compound was determined by the following equation. D(%) = 100 -((C) - (A))/((B) - (A))× 100 [formula]
Each test was performed in triplicate.
The test compounds are indicated by compound Nos.

For `CCCC[C@@H](NC(=O)[C@@H](Cc1cn(C(=O)OC)c2ccccc12)NC(=O)[C@H](CC(C)C)NC(=O)Nc1ccccc1Cl)C(=O)O` [Compound 1], the inhibition (in general, how much of the control response was suppressed) at 1.1 µM stood at 99%. For `CCCC[C@@H](NC(=O)[C@@H](Cc1cn(C(=O)OCC)c2ccccc12)NC(=O)[C@H](CC(C)C)NC(=O)Nc1ccccc1Cl)C(=O)O` [Compound 2] the value was 97%; for `CCCC[C@@H](NC(=O)[C@@H](Cc1cn(C(=O)OC)c2ccccc12)NC(=O)[C@H](CC(C)C)NC(=O)Nc1c(Cl)cccc1Cl)C(=O)O` [Compound 3], 94%. The same measure for `CCCC[C@@H](NC(=O)[C@@H](Cc1cn(C(=O)OC)c2ccccc12)NC(=O)[C@H](CC(C)C)NC(=O)N1CCCCCC1)C(=O)O` [Compound 9]: 99%.

`CCCC[C@@H](NC(=O)[C@@H](Cc1cn(C(=O)OC)c2ccccc12)NC(=O)[C@H](CC(C)C)NC(=O)N1CCSCC1)C(=O)O` [Compound 10]: the inhibition at 1.1 µM was 89%. In turn, `CCCC[C@@H](NC(=O)[C@@H](Cc1cn(C(=O)OC)c2ccccc12)NC(=O)[C@H](CC(C)C)NC(=O)N1CCCC1)C(=O)O` [Compound 11] ({Pyrrolidide-CO}-Leu-[dW](Moc)-[dNle]-OH) yielded an inhibition at 1.1 µM of 73%.

Consider `CCCC[C@@H](NC(=O)[C@@H](Cc1cn(C(=O)OC)c2ccccc12)NC(=O)[C@H](CC(C)C)NC(=O)N1CCCCC1)C(=O)O` [Compound 12] ({Piperidide-CO}-Leu-[dW](Moc)-[dNle]-OH), for which the inhibition at 1.1 µM was determined as 96%. `CCCC[C@@H](NC(=O)[C@@H](Cc1cn(C(=O)OC)c2ccccc12)NC(=O)[C@H](CC(C)C)NC(=O)N1CCSC1)C(=O)O` [Compound 13] yielded an inhibition at 1.1 µM of 72%.

Turning to `CCCC[C@@H](NC(=O)[C@@H](Cc1cn(C(=O)OC)c2ccccc12)NC(=O)[C@H](CC(C)C)NC(=O)N(C(C)C)C(C)C)C(=O)O` [Compound 14], the inhibition at 1.1 µM was found to be 99%.

Take `CCCC[C@@H](NC(=O)[C@@H](Cc1cn(C(=O)OC)c2ccccc12)NC(=O)[C@H](CC(C)C)NC(=O)N(CCC)C1CCCC1)C(=O)O` [Compound 17]: testing at 1.1 µM gave an inhibition of 95%. `CCCC[C@@H](NC(=O)[C@@H](Cc1cn(C(=O)OC)c2ccccc12)NC(=O)[C@H](CC(C)C)NC(=O)NC12CC3CC(CC(C3)C1)C2)C(=O)O` [Compound 25] displayed an inhibition at 1.1 µM of 97%. `CC[C@@H](NC(=O)[C@@H](Cc1cn(C(=O)OC)c2ccccc12)NC(=O)[C@H](CC(C)C)NC(=O)OC(C)(C)C)C(=O)O` [Compound 26] (Boc-Leu-[dW](Moc)-[dAbu]-OH): the inhibition at 1.1 µM was 71%. Turning to `CCCC[C@@H](NC(=O)[C@@H](Cc1cn(C(=O)OC)c2ccccc12)NC(=O)[C@H](CC(C)C)NC(=O)NC(C)(C)C)C(=O)O` [Compound 27] ({NHtBu-CO}-Leu-[dW](Moc)-[dNle]-OH), the inhibition at 1.1 µM came to 91%. For `CCCC[C@@H](NC(=O)[C@@H](Cc1cn(C(=O)OC)c2ccccc12)NC(=O)[C@H](CC(C)C)NC(=O)N1CCCCCCC1)C(=O)OC(C)(C)C` [Compound 28] the value was 92%.

As for `CCCC[C@@H](NC(=O)[C@@H](Cc1cn(C(=O)OC)c2ccccc12)NC(=O)[C@H](CC(C)C)NC(=O)N1CCCCCCC1)C(=O)O` [Compound 29], the inhibition at 1.1 µM came out at 99%.

In the case of `CCCC[C@@H](NC(=O)[C@@H](Cc1c(Cl)[nH]c2ccccc12)NC(=O)[C@H](CC(C)C)NC(=O)N1C(C)CCCC1C)C(=O)O` (some centres unmarked) [Compound 67], the inhibition at 1.1 µM was 97%. `CCCC[C@@H](NC(=O)[C@@H](Cc1c(Cl)[nH]c2ccccc12)NC(=O)[C@H](CC(C)C)NC(=O)N1CCCCCC1)C(=O)O` [Compound 68] yielded an inhibition at 1.1 µM of 93%.
